Results: US12473304B2, “Heterocyclic PAD4 inhibitors” (BRISTOL-MYERS SQUIBB COMPANY, priority 2020, dated 2025)

Biological target: human PAD4 (hPAD4) (Homo sapiens (Human), UniProt Q9UM07)
Assay: RFMS Human PAD4 Functional Assay 1
Type: biochemical
Details: RFMS assay 1; 5 nM hPAD4, 250 μM BAEE substrate, 50 μM calcium, 37° C.
Procedure, shortened: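 Citrullination product read by RapidFire triple-quad MRM against a modified-citrulline internal standard, after TCA stop and 30 min phenyl glyoxal step at 37 °C. Reaction: 250 μM BAEE, 5 nM human PAD4, 90 min at 37 °C, pH 7.5 HEPES buffer with 50 μM calcium and 5 μM TPEN, following 30 min compound–enzyme preincubation (max 50 μM).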

Sequence of human PAD4 (hPAD4) (Q9UM07 whole entry): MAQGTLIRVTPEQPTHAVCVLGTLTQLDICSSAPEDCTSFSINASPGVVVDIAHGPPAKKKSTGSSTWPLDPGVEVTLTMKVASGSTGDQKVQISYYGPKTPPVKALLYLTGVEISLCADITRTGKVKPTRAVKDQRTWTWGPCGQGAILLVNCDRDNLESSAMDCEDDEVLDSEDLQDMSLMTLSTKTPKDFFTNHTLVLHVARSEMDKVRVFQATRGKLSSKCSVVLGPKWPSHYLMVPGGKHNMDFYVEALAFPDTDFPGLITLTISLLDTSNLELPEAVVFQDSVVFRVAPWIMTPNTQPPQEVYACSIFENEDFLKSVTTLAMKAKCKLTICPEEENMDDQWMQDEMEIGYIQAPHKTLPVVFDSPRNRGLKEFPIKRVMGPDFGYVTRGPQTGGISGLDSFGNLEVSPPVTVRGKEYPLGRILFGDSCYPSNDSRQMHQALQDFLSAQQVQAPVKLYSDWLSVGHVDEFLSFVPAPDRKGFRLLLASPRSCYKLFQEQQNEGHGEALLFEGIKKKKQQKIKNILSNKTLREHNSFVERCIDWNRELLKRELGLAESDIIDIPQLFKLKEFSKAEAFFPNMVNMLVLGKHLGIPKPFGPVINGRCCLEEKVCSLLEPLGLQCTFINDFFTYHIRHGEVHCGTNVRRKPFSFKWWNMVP

Row | Compound | IC50
1 | Cc1c(-c2cc3ccc(-c4ccc(C(N)=O)c(F)c4)nc3n2CC2CC2)nn2cc(C(=O)N3C[C@H](N)C[C@@H](F)C3)ccc12 [Example 84, 4-(2-(6-((3R,5R)-3-Amino-5-fluoropiperidine-1-carbonyl)-3-methylpyrazolo[1,5-a]pyridin-2-yl)-1-(cyclopropylmethyl)-1H-pyrrolo[2,3-b]pyridin-6-yl)-2-fluorobenzamide] | 610 nM
2 | Cc1c(-c2cc3ccc(-c4ccc(C(N)=O)c(Cl)c4)nc3n2CC2CC2)nn2cc(C(=O)N3C[C@H](N)C[C@@H](F)C3)ccc12 [Example 85, 4-(2-(6-((3R,5R)-3-Amino-5-fluoropiperidine-1-carbonyl)-3-methylpyrazolo[1,5-a]pyridin-2-yl)-1-(cyclopropylmethyl)-1H-pyrrolo[2,3-b]pyridin-6-yl)-2-chlorobenzamide] | 327 nM
3 | Cc1c(-c2cc3ccc(-c4cccc(O)c4F)nc3n2CC2CC2)nn2cc(C(=O)N3C[C@H](N)C[C@@H](F)C3)ccc12 [Example 86, ((3R,5R)-3-Amino-5-fluoropiperidin-1-yl)(2-(1-(cyclopropylmethyl)-6-(2-fluoro-3-hydroxyphenyl)-1H-pyrrolo[2,3-b]pyridin-2-yl)-3-methylpyrazolo[1,5-a]pyridin-6-yl)methanone] | 219 nM
4 | COC1CCN(c2ccc3cc(-c4nn5cc(C(=O)N6C[C@H](N)C[C@@H](F)C6)ccc5c4C)n(CC4CC4)c3n2)CC1 [Example 87, ((3R,5R)-3-Amino-5-fluoropiperidin-1-yl)(2-(1-(cyclopropylmethyl)-6-(4-methoxypiperidin-1-yl)-1H-pyrrolo[2,3-b]pyridin-2-yl)-3-methylpyrazolo[1,5-a]pyridin-6-yl)methanone] | 2320 nM
5 | Cc1c(-c2cc3ccc(N4CCC(O)CC4)nc3n2CC2CC2)nn2cc(C(=O)N3C[C@H](N)C[C@@H](F)C3)ccc12 [Example 88, ((3R,5R)-3-Amino-5-fluoropiperidin-1-yl)(2-(1-(cyclopropylmethyl)-6-(4-hydroxypiperidin-1-yl)-1H-pyrrolo[2,3-b]pyridin-2-yl)-3-methylpyrazolo[1,5-a]pyridin-6-yl)methanone] | 1680 nM
6 | Cc1c(-c2cc3ccc(-c4ccc5c(c4)C(=O)NC5)cc3n2CC2CC2)nn2cc(C(=O)N3CC4CCC3[C@@H]4N)ccc12 (stereo partly drawn) [Example 89, 6-(2-(6-((7R)-7-Amino-2-azabicyclo[2.2.1]heptane-2-carbonyl)-3-methylpyrazolo[1,5-a]pyridin-2-yl)-1-(cyclopropylmethyl)-1H-indol-6-yl)isoindolin-1-one] | 48 nM
7 | Cc1c(-c2cc3ccc(-c4ccc5c(c4)CNC5=O)cc3n2CC2CC2)nn2cc(C(=O)N3CC4CCC3[C@@H]4N)ccc12 (stereo partly drawn) [Example 90, 5-(2-(6-((7R)-7-Amino-2-azabicyclo[2.2.1]heptane-2-carbonyl)-3-methylpyrazolo[1,5-a]pyridin-2-yl)-1-(cyclopropylmethyl)-1H-indol-6-yl)isoindolin-1-one] | 12 nM
8 | Cc1c(-c2cc3ccc(N4CC(F)(CO)C4)cc3n2CC2CC2)nn2cc(C(=O)N3CC4CCC3[C@@H]4N)ccc12 (stereo partly drawn) [Example 91, ((7R)-7-Amino-2-azabicyclo[2.2.1]heptan-2-yl)(2-(1-(cyclopropylmethyl)-6-(3-fluoro-3-(hydroxymethyl)azetidin-1-yl)-1H-indol-2-yl)-3-methylpyrazolo[1,5-a]pyridin-6-yl)methanone] | 602 nM
9 | Cc1c(-c2cc3ccc(-c4cccc(O)c4F)cc3n2CC2CC2)nn2cc(C(=O)N3C[C@H](N)C[C@@H](F)C3)ccc12 [Example 92, ((3R,5R)-3-Amino-5-fluoropiperidin-1-yl)(2-(1-(cyclopropylmethyl)-6-(2-fluoro-3-hydroxyphenyl)-1H-indol-2-yl)-3-methylpyrazolo[1,5-a]pyridin-6-yl)methanone] | 672 nM
10 | Cc1c(-c2cc3ccc(-c4ccc(C(N)=O)c(F)c4)cc3n2CC2CC2)nn2cc(C(=O)N3C[C@H](N)C[C@@H](F)C3)ccc12 [Example 93, 4-(2-(6-((3R,5R)-3-Amino-5-fluoropiperidine-1-carbonyl)-3-methylpyrazolo[1,5-a]pyridin-2-yl)-1-(cyclopropylmethyl)-1H-indol-6-yl)-2-fluorobenzamide] | 220 nM
11 | Cc1c(-c2cc3ccc(-c4ccc(O)c(F)c4)cc3n2CC2CC2)nn2cc(C(=O)N3C[C@H](N)C[C@@H](F)C3)ccc12 [Example 94, ((3R,5R)-3-Amino-5-fluoropiperidin-1-yl)(2-(1-(cyclopropylmethyl)-6-(3-fluoro-4-hydroxyphenyl)-1H-indol-2-yl)-3-methylpyrazolo[l,5-a]pyridin-6-yl)methanone] | 934 nM
12 | Cc1c(-c2cc3ccc(-c4ccc5c(c4)CNC5=O)cc3n2CC2CC2)nn2cc(C(=O)N3C[C@H](N)C[C@@H](F)C3)ccc12 [Example 95, 5-(2-(6-((3R,5R)-3-Amino-5-fluoropiperidine-1-carbonyl)-3-methylpyrazolo[1,5-a]pyridin-2-yl)-1-(cyclopropylmethyl)-1H-indol-6-yl)isoindolin-1-one] | 133 nM
13 | Cc1c(-c2cc3ccc(-c4ccc5c(c4)C(=O)NC5)cc3n2CC2CC2)nn2cc(C(=O)N3C[C@H](N)C[C@@H](F)C3)ccc12 [Example 96, 6-(2-(6-((3R,5R)-3-Amino-5-fluoropiperidine-1-carbonyl)-3-methylpyrazolo[1,5-a]pyridin-2-yl)-1-(cyclopropylmethyl)-1H-indol-6-yl)isoindolin-1-one] | 588 nM
14 | COc1cc(C(=O)N2C[C@H](N)C[C@@H](F)C2)cn2nc(-c3cc4ccc(C(C)(C)O)cc4n3CC3CC3)c(C)c12 [Example 98, ((3R,5R)-3-Amino-5-fluoropiperidin-1-yl)(2-(1-(cyclopropylmethyl)-6-(2-hydroxypropan-2-yl)-1H-indol-2-yl)-4-methoxy-3-methylpyrazolo[1,5-a]pyridin-6-yl)methanone] | 14 nM
15 | COc1cc(C(=O)N2C[C@H](N)C[C@@H](F)C2)cn2nc(-c3cc4ccc(C(C)(O)C(F)(F)F)cc4n3CC3CC3)c(C)c12 (stereo partly drawn) [Example 99, ((3R,5R)-3-Amino-5-fluoropiperidin-1-yl)(2-(1-(cyclopropylmethyl)-6-(1,1,1-trifluoro-2-hydroxypropan-2-yl)-1H-indol-2-yl)-4-methoxy-3-methylpyrazolo[1,5-a]pyridin-6-yl)methanone] | 307 nM
16 | Cc1c(-c2cc3ccc(C(C)(C)O)cc3n2CC2CC2)nn2cc(C(=O)N3CC4CCC3[C@@H]4N)ccc12 (stereo partly drawn) [Example 100, ((7R)-7-Amino-2-azabicyclo[2.2.1]heptan-2-yl)(2-(1-(cyclopropylmethyl)-6-(2-hydroxypropan-2-yl)-1H-indol-2-yl)-3-methylpyrazolo[1,5-a]pyridin-6-yl)methanone] | 36 nM
17 | Cc1c(-c2cc3ccc(C(C)(O)C(F)(F)F)cc3n2CC2CC2)nn2cc(C(=O)N3CC4CCC3[C@@H]4N)ccc12 (stereo partly drawn) [Example 101, ((7R)-7-Amino-2-azabicyclo[2.2.1]heptan-2-yl)(2-(1-(cyclopropylmethyl)-6-(1,1,1-trifluoro-2-hydroxypropan-2-yl)-1H-indol-2-yl)-3-methylpyrazolo[1,5-a]pyridin-6-yl)methanone] | 11 nM
18 | Cc1c(-c2cc3ccc(C(C)(C)O)nc3n2CC2CC2)nn2cc(C(=O)N3CC4CCC3[C@@H]4N)ccc12 (stereo partly drawn) [Example 102, ((7R)-7-Amino-2-azabicyclo[2.2.1]heptan-2-yl)(2-(1-(cyclopropylmethyl)-6-(2-hydroxypropan-2-yl)-1H-pyrrolo[2,3-b]pyridin-2-yl)-3-methylpyrazolo[1,5-a]pyridin-6-yl)methanone] | 12 nM
19 | Cc1c(-c2cc3ccc(C(C)(O)C(F)(F)F)nc3n2CC2CC2)nn2cc(C(=O)N3CC4CCC3[C@@H]4N)ccc12 (stereo partly drawn) [Example 103, ((7R)-7-Amino-2-azabicyclo[2.2.1]heptan-2-yl)(2-(1-(cyclopropylmethyl)-6-(1,1,1-trifluoro-2-hydroxypropan-2-yl)-1H-pyrrolo[2,3-b]pyridin-2-yl)-3-methylpyrazolo[1,5-a]pyridin-6-yl)methanone] | 34 nM
20 | Cc1c(-c2cc3ccc(C(C)O)nc3n2CC2CC2)nn2cc(C(=O)N3CC4CCC3[C@@H]4N)ccc12 (stereo partly drawn) [Example 104, ((7R)-7-Amino-2-azabicyclo[2.2.1]heptan-2-yl)(2-(1-(cyclopropylmethyl)-6-(1-hydroxyethyl)-1H-pyrrolo[2,3-b]pyridin-2-yl)-3-methylpyrazolo[1,5-a]pyridin-6-yl)methanone] | 25 nM
21 | Cc1c(-c2cc3ccc(C(C)(C)O)nc3n2CC2CC2)nn2cc(C(=O)N3C[C@H](N)C[C@@H](F)C3)ccc12 [Example 105, ((3R,5R)-3-Amino-5-fluoropiperidin-1-yl)(2-(1-(cyclopropylmethyl)-6-(2-hydroxypropan-2-yl)-1H-pyrrolo[2,3-b]pyridin-2-yl)-3-methylpyrazolo[1,5-a]pyridin-6-yl)methanone] | 107 nM
22 | Cc1c(-c2cc3ccc(Cl)nc3n2CC2CC2)nn2cc(C(=O)N3CC4CCC3[C@@H]4N)cnc12 (stereo partly drawn) [Example 108, ((7R)-7-Amino-2-azabicyclo[2.2.1]heptan-2-yl)(2-(6-chloro-1-(cyclopropylmethyl)-1H-pyrrolo[2,3-b]pyridin-2-yl)-3-methylpyrazolo[1,5-a]pyrimidin-6-yl)methanone] | 907 nM
23 | Cc1c(-c2cc3ccc(-c4cccc(O)c4F)nc3n2CC2CC2)nn2cc(C(=O)N3CC4CCC3[C@@H]4N)cnc12 (stereo partly drawn) [Example 109, ((7R)-7-Amino-2-azabicyclo[2.2.1]heptan-2-yl)(2-(1-(cyclopropylmethyl)-6-(2-fluoro-3-hydroxyphenyl)-1H-pyrrolo[2,3-b]pyridin-2-yl)-3-methylpyrazolo[1,5-a]pyrimidin-6-yl)methanone] | 292 nM
24 | Cc1c(-c2cc3ccc(-c4ccc5c(c4)C(=O)NC5)nc3n2CC2CC2)nn2cc(C(=O)N3CC4CCC3[C@@H]4N)cnc12 (stereo partly drawn) [Example 110, 6-(2-(6-((7R)-7-Amino-2-azabicyclo[2.2.1]heptane-2-carbonyl)-3-methylpyrazolo[1,5-a]pyrimidin-2-yl)-1-(cyclopropylmethyl)-1H-pyrrolo[2,3-b]pyridin-6-yl)isoindolin-1-one] | 1040 nM
